# pIC50: −log10 of the molar value. The source made the active and inactive calls. The rule behind the calls is not given here.
# What was measured:
# [1] = Clearance in APPswe/PS1dE9 double mutant-transgenic mouse at 30 mg/kg, ip administered as single dose by LC-MS/MS analysis; assay type: ADME, organism-based; conditions: in vivo
# [2] = AUC in APPswe/PS1dE9 double mutant-transgenic mouse at 3 mg/kg, iv administered as single dose by LC-MS/MS analysis; assay type: ADME, organism-based; conditions: in vivo
# SH-SY5Y = experiment: Neuroprotective activity against amyloid beta (25 to 35 residues)-induced cell death in human SH-SY5Y cells assessed as increase in cell viability at 1 to 10 uM preincubated for 1 hr followed by amyloid beta (25 to 35 residues) addition and measured after 72 hrs by MTT assay; assay type: functional, cell-based
# Mus musculus [3] = experiment: Improvement in spatial memory impairment in APPswe/PS1dE9 double mutant-transgenic mouse model assessed as increase in retention latency time at 15 to 30 mg/kg, ip administered once daily for 12 weeks measured post-last dose by step-through passive avoidance test; assay type: functional, organism-based
# Mus musculus [4] = experiment: In vivo inhibition of […] phosphorylation in hippocampus of APPswe/PS1dE9 double mutant-transgenic mouse model at 30 mg/kg, ip administered once daily for 12 weeks measured post-last dose by Western blot analysis; assay type: functional, organism-based
# Mus musculus [5] = experiment: In vivo inhibition of […] phosphorylation in cortex of APPswe/PS1dE9 double mutant-transgenic mouse model at 30 mg/kg, ip administered once daily for 12 weeks measured post-last dose by Western blot analysis; assay type: functional, organism-based
# Mus musculus [6] = experiment: Effect on acquisition latency time in APPswe/PS1dE9 double mutant-transgenic mouse model at 15 to 30 mg/kg, ip administered once daily for 12 weeks measured post-last dose by step-through passive avoidance test; assay type: ADME, organism-based; conditions: in vivo, 2016 h
# Mus musculus [7] = experiment: Improvement in spatial memory impairment in ip dosed APPswe/PS1dE9 double mutant-transgenic mouse model assessed as decrease in number of fibrillar plaque in hippocampus administered once daily for 12 weeks measured post-last dose by thioflavin S staining-based fluorescence microscopic analysis; assay type: functional, organism-based
# Mus musculus [8] = experiment: Improvement in spatial memory impairment in ip dosed APPswe/PS1dE9 double mutant-transgenic mouse model assessed as decrease in number of diffused plaque in hippocampus administered once daily for 12 weeks measured post-last dose by thioflavin S staining-based fluorescence microscopic analysis; assay type: functional, organism-based
# Mus musculus [9] = experiment: Improvement in spatial memory impairment in APPswe/PS1dE9 double mutant-transgenic mouse model assessed as decrease in exploration distance at 15 to 30 mg/kg, ip administered once daily for 12 weeks measured 24 hrs after training trial by morris water maze test; assay type: functional, organism-based
# Mus musculus [10] = experiment: In vivo inhibition of JNK in APPswe/PS1dE9 double mutant-transgenic mouse model assessed as reduction in APP phosphorylation at Thr668 residue in cortex at 30 mg/kg, ip administered once daily for 12 weeks measured post-last dose by Western blot analysis; assay type: functional, organism-based
# Mus musculus [11] = experiment: Improvement in spatial memory impairment in ip dosed APPswe/PS1dE9 double mutant-transgenic mouse model assessed as decrease in number of fibrillar plaque in cortex administered once daily for 12 weeks measured post-last dose by thioflavin S staining-based fluorescence microscopic analysis; assay type: functional, organism-based
# [12] = Terminal half life in APPswe/PS1dE9 double mutant-transgenic mouse at 30 mg/kg, ip administered as single dose by LC-MS/MS analysis; assay type: ADME, organism-based; conditions: in vivo, read-out: beta t1/2 (converted)
# [13] = Plasma concentration in APPswe/PS1dE9 double mutant-transgenic mouse at 30 mg/kg, ip administered as single dose measured after 0.5 hrs by LC-MS/MS analysis; assay type: ADME, organism-based
# Mus musculus [14] = experiment: Improvement in spatial memory impairment in ip dosed APPswe/PS1dE9 double mutant-transgenic mouse model assessed as decrease in area occupied by fibrillar plaque in cortex administered once daily for 12 weeks measured post-last dose by thioflavin S staining-based fluorescence microscopic analysis; assay type: functional, organism-based
# Mus musculus [15] = experiment: Improvement in spatial memory impairment in APPswe/PS1dE9 double mutant-transgenic mouse model assessed as decrease in escape latency at 15 to 30 mg/kg, ip administered once daily for 12 weeks measured 24 hrs after training trial by morris water maze test; assay type: functional, organism-based
# [16] = Drug level in APPswe/PS1dE9 double mutant-transgenic mouse brain at 30 mg/kg, ip administered as single dose measured after 8 hrs by LC-MS/MS analysis; assay type: ADME, organism-based; conditions: read-out: Drug uptake
# [17] = Primary phase half life in APPswe/PS1dE9 double mutant-transgenic mouse at 3 mg/kg, iv administered as single dose by LC-MS/MS analysis; assay type: ADME, organism-based; conditions: in vivo, read-out: alphat1/2 (converted)
# Mus musculus [18] = experiment: Improvement in spatial memory impairment in APPswe/PS1dE9 double mutant-transgenic mouse model assessed as increase in duration of time spent in target quadrant at 15 to 30 mg/kg, ip administered once daily for 12 weeks measured 24 hrs after training trial by morris water maze test; assay type: functional, organism-based
# [19] = Clearance in APPswe/PS1dE9 double mutant-transgenic mouse at 3 mg/kg, iv administered as single dose by LC-MS/MS analysis; assay type: ADME, organism-based; conditions: in vivo
# [20] = Drug level in APPswe/PS1dE9 double mutant-transgenic mouse brain at 30 mg/kg, ip administered as single dose measured after 2 hrs by LC-MS/MS analysis; assay type: ADME, organism-based; conditions: read-out: Drug uptake
# [21] = Ratio of drug level in APPswe/PS1dE9 double mutant-transgenic mouse brain to plasma at 30 mg/kg, ip administered as single dose measured after 0.5 hrs by LC-MS/MS analysis; assay type: ADME, organism-based; conditions: read-out: BPR
# Mus musculus [22] = experiment: In vivo inhibition of JNK in APPswe/PS1dE9 double mutant-transgenic mouse model assessed as reduction in Tau phosphorylation at Thr205 residue in cortex at 30 mg/kg, ip administered once daily for 12 weeks measured post-last dose by Western blot analysis; assay type: functional, organism-based
# [23] = Toxicity in APPswe/PS1dE9 double mutant-transgenic mouse model assessed as effect on time to reach target quadrant at 15 to 30 mg/kg, ip administered once daily for 12 weeks measured 48 hrs after training trial by morris water maze test; assay type: organism-based; conditions: in vivo
# [24] = Plasma concentration in APPswe/PS1dE9 double mutant-transgenic mouse at 30 mg/kg, ip administered as single dose measured after 24 hrs by LC-MS/MS analysis; assay type: ADME, organism-based
# [25] = AUC in APPswe/PS1dE9 double mutant-transgenic mouse at 30 mg/kg, ip administered as single dose by LC-MS/MS analysis; assay type: ADME, organism-based; conditions: in vivo
# [26] = Cmax in APPswe/PS1dE9 double mutant-transgenic mouse at 30 mg/kg, ip administered as single dose by LC-MS/MS analysis; assay type: ADME, organism-based; parameters: dose 30 mg/kg, route intraperitoneal; conditions: in vivo
# [27] = Ratio of drug level in APPswe/PS1dE9 double mutant-transgenic mouse brain to plasma at 30 mg/kg, ip administered as single dose measured after 8 hrs by LC-MS/MS analysis; assay type: ADME, organism-based; conditions: read-out: BPR
# [28] = Tmax in APPswe/PS1dE9 double mutant-transgenic mouse at 30 mg/kg, ip administered as single dose by LC-MS/MS analysis; assay type: ADME, organism-based; conditions: in vivo
# [29] = target: Mitogen-activated protein kinase 8 (Homo sapiens, UniProt P45983); experiment: Inhibition of human JNK1alpha1 using ATF2 as substrate measured after 40 mins in presence of [gamma33P]ATP by scintillation counting analysis
# [30] = Plasma concentration in APPswe/PS1dE9 double mutant-transgenic mouse at 30 mg/kg, ip administered as single dose measured after 2 hrs by LC-MS/MS analysis; assay type: ADME, organism-based
# Chain of Mitogen-activated protein kinase 8 (P45983 whole entry): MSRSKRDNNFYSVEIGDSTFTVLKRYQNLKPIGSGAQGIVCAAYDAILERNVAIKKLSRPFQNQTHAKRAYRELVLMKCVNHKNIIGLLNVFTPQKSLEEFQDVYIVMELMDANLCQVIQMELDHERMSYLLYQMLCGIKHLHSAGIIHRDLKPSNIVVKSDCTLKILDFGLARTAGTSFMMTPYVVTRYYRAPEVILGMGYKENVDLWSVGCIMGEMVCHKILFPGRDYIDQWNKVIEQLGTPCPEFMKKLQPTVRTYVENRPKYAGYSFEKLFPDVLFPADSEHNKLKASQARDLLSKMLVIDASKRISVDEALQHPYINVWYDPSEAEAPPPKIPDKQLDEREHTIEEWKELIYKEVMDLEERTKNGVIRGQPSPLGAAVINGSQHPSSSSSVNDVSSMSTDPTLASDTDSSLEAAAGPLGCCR
smiles,measurement,setting,value
O=C1N/C(=N/c2ccccc2Cl)S/C1=C1\C(=O)Nc2ccc(F)cc21,CL/F,[1],26.5 mL/min/kg
same,AUC,[2],2120 ng·h/mL
same,Activity,SH-SY5Y,Active
same,Activity,Mus musculus [3],Active
same,inhibition,Mus musculus [4],Active
same,inhibition,Mus musculus [5],Active
same,Activity,Mus musculus [6],Non-Toxic
same,Activity,Mus musculus [7],Dose-dependent effect
same,Activity,Mus musculus [8],Dose-dependent effect
same,Activity,Mus musculus [9],Active
same,inhibition,Mus musculus [10],Active
same,Activity,Mus musculus [11],Dose-dependent effect
same,half-life,[12],967 min
same,concentration at 0.5 h,[13],20600 ng/mL
same,Activity,Mus musculus [14],Dose-dependent effect
same,Activity,Mus musculus [15],Active
same,concentration at 8 h,[16],30.7 ng/g
same,half-life,[17],21 min
same,Activity,Mus musculus [18],Active
same,clearance,[19],24.2 mL/min/kg
same,concentration at 2 h,[20],158 ng/g
same,Kp at 0.5 h,[21],0.0024
same,inhibition,Mus musculus [22],Active
same,Activity,[23],Non-Toxic
same,concentration at 24 h,[24],41 ng/mL
same,AUC,[25],19200 ng·h/mL
same,Cmax,[26],19200 ng/mL
same,Kp at 8 h,[27],0.4
same,Tmax,[28],24 min
same,pIC50,[29],< 4.00
same,concentration at 2 h,[30],1200 ng/mL
